From patent US10000512B2, “Compounds for the treatment of infectious diseases” (Hoffmann-La Roche Inc., priority 2014, dated 2018)

What follows are compounds tested against T1, human TLR7 (Homo sapiens, UniProt Q9NYK1) (assay: HEK293-Blue-hTLR-7 cells assay (SEAP reporter)). Conditions: 20 hours incubation.
T1 sequence (Q9NYK1 27-1049): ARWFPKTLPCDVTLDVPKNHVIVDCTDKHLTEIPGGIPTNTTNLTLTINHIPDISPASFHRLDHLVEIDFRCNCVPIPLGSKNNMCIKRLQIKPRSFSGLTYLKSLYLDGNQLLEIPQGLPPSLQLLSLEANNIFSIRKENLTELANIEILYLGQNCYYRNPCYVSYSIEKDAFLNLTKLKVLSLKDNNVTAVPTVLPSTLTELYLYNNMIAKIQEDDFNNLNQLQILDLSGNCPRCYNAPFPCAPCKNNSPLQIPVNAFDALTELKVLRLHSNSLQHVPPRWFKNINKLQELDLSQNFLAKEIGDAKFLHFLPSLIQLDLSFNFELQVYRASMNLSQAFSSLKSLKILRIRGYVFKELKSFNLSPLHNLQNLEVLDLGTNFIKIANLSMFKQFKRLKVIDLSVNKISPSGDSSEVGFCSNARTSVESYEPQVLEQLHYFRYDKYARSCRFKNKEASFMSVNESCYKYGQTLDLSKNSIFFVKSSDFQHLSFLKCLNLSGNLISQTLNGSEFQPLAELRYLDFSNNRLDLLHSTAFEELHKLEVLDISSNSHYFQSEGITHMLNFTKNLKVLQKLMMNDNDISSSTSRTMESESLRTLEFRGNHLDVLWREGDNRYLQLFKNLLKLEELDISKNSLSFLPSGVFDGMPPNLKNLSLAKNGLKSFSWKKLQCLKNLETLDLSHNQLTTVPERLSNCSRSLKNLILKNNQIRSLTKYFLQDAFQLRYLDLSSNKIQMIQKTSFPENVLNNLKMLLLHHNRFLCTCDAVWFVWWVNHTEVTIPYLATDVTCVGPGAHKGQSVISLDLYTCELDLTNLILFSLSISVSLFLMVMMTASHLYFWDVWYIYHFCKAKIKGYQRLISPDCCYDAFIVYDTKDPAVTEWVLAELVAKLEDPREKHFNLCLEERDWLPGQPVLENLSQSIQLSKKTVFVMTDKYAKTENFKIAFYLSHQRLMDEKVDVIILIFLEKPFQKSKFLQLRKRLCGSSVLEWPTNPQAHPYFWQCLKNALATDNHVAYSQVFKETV
Assay type: cell-based
From the text: A stable HEK293-Blue-hTLR-7 cell line was purchased from InvivoGen (Cat.#: hkb-ht1r7, San Diego, Calif., USA). These cells were designed for studying the stimulation of human TLR7 by monitoring the activation of NF-κB. A SEAP (secreted embryonic alkaline phosphatase) reporter gene was placed under the control of the IFN-β minimal promoter fused to five NF-κB and AP-1-binding sites. The SEAP was induced by activating NF-κB and AP-1 via stimulating HEK-Blue hTLR7 cells with TLR7 ligands. Therefore the reporter expression was regulated by the NF-κB promoter upon stimulation of human TLR7 for 20 hours. The cell culture supernatant SEAP reporter activity was determined using QUANTI-Blue™ kit (Cat.#: rep-qb1, Invivogen, San Diego, Calif., USA) at a wavelength of 640 nm, a detection medium that turns purple/blue in the presence of alkaline phosphatase.
HEK293-Blue-hTLR7 cells were incubated at a density of 250,000˜450,000 cells/mL in a volume of 180 μL in a 96-well plate in Dulbecco's Modified Eagle's medium (DMEM) containing 4.5 g/L glucose, 50 U/mL penicillin, […] streptomycin, […] Normocin, 2 mM L-glutamine, 10% (v/v) heat-inactivated fetal bovine serum for 24 h. Then the HEK293-Blue-hTLR-7 cells were incubated with addition of 20 μL test compound in a serial dilution in the presence of final DMSO at 1% and perform incubation under 37° C. in a CO2 incubator for 20 hours. Then 20 μL of the supernatant from each well was incubated with 180 μL Quanti-blue substrate solution at 37° C. for 2 h and the absorbance was read at 620˜655 nm using a spectrophotometer. The signalling pathway that TLR7 activation leads to downstream NF-κB activation has been widely accepted, and therefore similar reporter assay was also widely used for evaluating TLR7 agonist (Tsuneyasu Kaisho and Takashi Tanaka, Trends in Immunology, Volume 29, Issue 7, July 2008, […]; Hiroaki Hemmi et al, Nature Immunology 3, 196-200 (2002).

Row | Compound | EC50 [µM]
1 | Nc1nc2c(sc(=O)n2[C@H]2CS[C@@H](C(O)C3CC3)O2)c(=O)[nH]1 (single isomer, unassigned) [Example 4-B] | 306
2 | CC(=O)OC(C1CC1)[C@H]1O[C@@H](n2c(=O)sc3c(=O)[nH]c(N)nc32)CS1 (single isomer, unassigned) [Example 7-A] | 61.7
3 | CCC(O)[C@H]1O[C@@H](n2c(=O)sc3c(=O)[nH]c(N)nc32)CS1 (single isomer, unassigned) [Example 8-A] | 16.5
4 | CCCC(O)[C@H]1O[C@@H](n2c(=O)sc3c(=O)[nH]c(N)nc32)CS1 (single isomer, unassigned) [Example 9-A] | 10
5 | CCCC(O)[C@H]1O[C@@H](n2c(=O)sc3c(=O)[nH]c(N)nc32)CS1 (single isomer, unassigned) [Example 9-B] | 160
6 | CC#CC(O)[C@H]1O[C@@H](n2c(=O)sc3c(=O)[nH]c(N)nc32)CS1 (single isomer, unassigned) [Example 10-A] | 7.6
7 | CC#CC(O)[C@H]1O[C@@H](n2c(=O)sc3c(=O)[nH]c(N)nc32)CS1 (single isomer, unassigned) [Example 10-B] | 122
8 | CC#CC(OC(C)=O)[C@H]1O[C@@H](n2c(=O)sc3c(=O)[nH]c(N)nc32)CS1 (single isomer, unassigned) [Example 13-A] | 151
9 | Nc1nc2c(sc(=O)n2[C@H]2CS[C@@H](C(O)C#CC3CC3)O2)c(=O)[nH]1 (single isomer, unassigned) [Example 14-A] | 54.3
10 | C#CC(O)[C@H]1O[C@@H](n2c(=O)sc3c(=O)[nH]c(N)nc32)CS1 (single isomer, unassigned) [Example 15-A] | 16.7
11 | CC(O)[C@H]1O[C@@H](n2c(=O)sc3c(=O)[nH]c(N)nc32)CS1 (single isomer, unassigned) [Example 16-A] | 46.5
12 | CC(C)CC(O)[C@H]1O[C@@H](n2c(=O)sc3c(=O)[nH]c(N)nc32)CS1 (single isomer, unassigned) [Example 17-A] | 63.3
13 | CC(C)CC(O)[C@H]1O[C@@H](n2c(=O)sc3c(=O)[nH]c(N)nc32)CS1 (single isomer, unassigned) [Example 17-B] | 93.6
14 | C=CCC(O)[C@H]1O[C@@H](n2c(=O)sc3c(=O)[nH]c(N)nc32)CS1 (single isomer, unassigned) [Example 18-A] | 29
15 | CCCCC(O)[C@H]1O[C@@H](n2c(=O)sc3c(=O)[nH]c(N)nc32)CS1 (single isomer, unassigned) [Example 19-A] | 32.9
16 | Nc1nc2c(sc(=O)n2[C@H]2CS[C@@H](C(O)c3cccs3)O2)c(=O)[nH]1 (single isomer, unassigned) [Example 20-A] | 33.9
17 | C[C@@H]1S[C@@H](CO)OC1n1c(=O)sc2c(=O)[nH]c(N)nc21 (single isomer, unassigned) [Example 21-A] | 53.9
18 | CC[C@H](O)C1OC(n2c(=O)sc3c(=O)[nH]c(N)nc32)[C@H](C)S1 (single isomer, unassigned) [Example 22-A] | 4.7
19 | C[C@@H]1S[C@@H](C(O)C2CC2)OC1n1c(=O)sc2c(=O)[nH]c(N)nc21 (single isomer, unassigned) [Example 23-A] | 4.5
20 | C[C@@H]1S[C@@H](C(O)C2CC2)OC1n1c(=O)sc2c(=O)[nH]c(N)nc21 (single isomer, unassigned) [Example 23-B] | 31.5
21 | CC#CC(O)C1OC(n2c(=O)sc3c(=O)[nH]c(N)nc32)[C@H](C)S1 (single isomer, unassigned) [Example 24-A] | 10.1
22 | C=CCC1SC(CO)OC1n1c(=O)sc2c(=O)[nH]c(N)nc21 (single isomer, unassigned) [Example 25-A, 3-[4-Allyl-2-(hydroxymethyl)-1,3-oxathiolan-5-yl]-5-amino-6H-thiazolo[4,5-d]pyrimidine-2,7-dione] | 178
23 | Nc1nc2c(sc(=O)n2C2CSC(CO)O2)c(=O)[nH]1 (stereo not shown) [Example 1, 5-Amino-3-[2-(hydroxymethyl)-1,3-oxathiolan-5-yl]-6H-thiazolo[4,5-d] pyrimidine-2,7-dione] | 97
24 | Nc1nc2c(sc(=O)n2[C@H]2CS[C@@H](CO)O2)c(=O)[nH]1 [Example 2-A, 5-amino-3-[(2S,5R)-2-(hydroxymethyl)-1,3-oxathiolan-5-yl]-6H-thiazolo[4,5-d]pyrimidine-2,7-dione] | 125

The compounds below were run on AAV-HBV (assay: In vivo antiviral efficacy in AAV-HBV mouse model). Conditions: 30 mg/kg PO QOD, after the 6-week treatment, mouse serum.
Design: species or system C57BL/6 mice
Procedure: Example 6-A was evaluated for its in vivo antiviral efficacy using an AAV-HBV mouse model. This mouse model for HBV infection was generated by injecting C57BL/6 mice with a recombinant adeno-associated virus (AAV) carrying a replicable HBV (hepatitis B virus) genome (AAV-HBV). In 3 weeks post infection, high levels of HBV viral markers, such as HBV genomic DNA and HBsAg (HBV surface antigen), was detected in the sera of infected mice. With persistent HBV viremia and fully competent immune system, the AAV-HBV model is suitable for investigating the in vivo efficacy of Example 6-A.
To establish the AAV-HBV model, a total of fifteen 4-week old male C57BL/6 mice, specific pathogen free, were purchased from Shanghai Laboratory Animal Center of Chinese Academy of Sciences (SLAC) and housed in an animal care facility in individually ventilated cages under controlled temperature and light conditions following the Institutional Animal Care guidelines. AAV-HBV virus stock was available from Beijing FivePlus Molecular Medicine Institute (Beijing, China). C57BL/6 mice were injected with 200 μL of recombinant virus in saline buffer through tail vein injection. The mice were bled on day 14 post injection to monitor HBsAg, HBeAg, and HBV genomic DNA in serum. On day 29 post injection, the fifteen mice were randomly recruited into 3 groups based on their HBV biomarker levels, and started to receive treatments, as shown in Table 3.
Mice in group 1 were treated with vehicle placebo (2% Klucel LF, 0.1% Polysorbate 80, and 0.1% Parabens in water); mice in group 2 and 3 were treated with Example 6-A at 30 mg/kg and 100 mg/kg respectively, every other day (QOD). All the mice were orally dosed for a total of 6 weeks. Serum samples were collected twice a week to monitor HBV biomarkers. Serum HBsAg was measured using CLIA kits (Autobio Diagnostics Co., Ltd, Zhengzhou, China) according to the manufacturer's instructions. The lower limit of detection for HBsAg was 0.1 ng/mL. Serum dilution of 500-fold (for HBsAg) was used to obtain values within the linear range of the standard curve. Serum HBV DNA was extracted using a MagNA Pure 96 DNA and Viral NA Small Volume Kit (Roche) following the manufacturer's instructions. The DNA samples were analyzed by real-time quantitative PCR (qPCR) using a HBV-specific primer and probe set for specific amplification and detection of a 128 bp HBV genome region from the nucleotide 2969 to 3096.

Row | Compound | reduction in HBV DNA | reduction in HBsAg [log]
25 | CC(=O)OC(C1CC1)[C@H]1O[C@@H](n2c(=O)sc3cnc(N)nc32)CS1 (single isomer, unassigned) [Example 6-A] | more than 2 log | 0.8

Same assay, conditions: 100 mg/kg PO QOD, at the end of the treatment (6 weeks), mouse serum

Row | Compound | reduction in HBV DNA | reduction in HBsAg [log]
26 | CC(=O)OC(C1CC1)[C@H]1O[C@@H](n2c(=O)sc3cnc(N)nc32)CS1 (single isomer, unassigned) [Example 6-A] | more than 3 log | 2.4
